{
  "source": "paper PMC5222732",
  "about": "(Journal of medicinal chemistry, 2016)",
  "key": {"Sprague-Dawley rats [1]": {"tested_on": "Sprague-Dawley rats", "test": "Hot plate algesia test", "type": "in vivo", "conditions": "rat; for effect on morphine analgesia, heat withdrawal threshold (hot plate): morphine 4 mg/kg sc"}, "Sprague-Dawley rats [2]": {"tested_on": "Sprague-Dawley rats", "test": "Tail heat algesia test", "type": "in vivo", "conditions": "rat, 1 mg/kg iv, morphine 4 mg/kg sc"}, "[3]": {"test": "In vivo brain uptake study, LC-MS/MS"}, "Plasma stability assay": {"test": "Plasma stability assay", "type": "in vitro ADME", "conditions": "37 °C"}, "[4]": {"molecular_target": "bovine serum albumin (BSA) (Bos taurus, UniProt P02769)", "sequence (P02769 25-607)": "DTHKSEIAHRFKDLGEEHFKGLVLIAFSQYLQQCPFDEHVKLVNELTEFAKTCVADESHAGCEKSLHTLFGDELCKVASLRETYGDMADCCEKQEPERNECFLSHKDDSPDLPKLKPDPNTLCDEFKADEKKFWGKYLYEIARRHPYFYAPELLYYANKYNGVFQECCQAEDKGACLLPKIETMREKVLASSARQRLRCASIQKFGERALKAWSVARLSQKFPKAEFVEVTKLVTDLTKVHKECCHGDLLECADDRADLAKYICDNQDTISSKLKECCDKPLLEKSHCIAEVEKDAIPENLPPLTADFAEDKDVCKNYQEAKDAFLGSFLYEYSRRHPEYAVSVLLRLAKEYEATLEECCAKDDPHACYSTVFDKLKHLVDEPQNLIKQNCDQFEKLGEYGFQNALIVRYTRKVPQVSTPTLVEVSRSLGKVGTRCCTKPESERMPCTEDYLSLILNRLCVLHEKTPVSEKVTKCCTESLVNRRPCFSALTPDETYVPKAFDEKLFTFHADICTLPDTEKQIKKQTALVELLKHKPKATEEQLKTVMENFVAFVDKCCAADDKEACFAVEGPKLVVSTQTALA", "test": "Determination of serum albumin binding", "type": "in vitro ADME", "conditions": "BSA 20 mg/mL, pH 7.4, 37 °C, 24-96 h"}, "μ opioid receptor (MOR) [5]": {"tested_on": "μ opioid receptor (MOR)", "type": "cell-based, guinea pig"}, "μ opioid receptor (MOR) [6]": {"molecular_target": "μ opioid receptor (MOR) (Rattus norvegicus, UniProt P33535)", "sequence (P33535 whole entry)": "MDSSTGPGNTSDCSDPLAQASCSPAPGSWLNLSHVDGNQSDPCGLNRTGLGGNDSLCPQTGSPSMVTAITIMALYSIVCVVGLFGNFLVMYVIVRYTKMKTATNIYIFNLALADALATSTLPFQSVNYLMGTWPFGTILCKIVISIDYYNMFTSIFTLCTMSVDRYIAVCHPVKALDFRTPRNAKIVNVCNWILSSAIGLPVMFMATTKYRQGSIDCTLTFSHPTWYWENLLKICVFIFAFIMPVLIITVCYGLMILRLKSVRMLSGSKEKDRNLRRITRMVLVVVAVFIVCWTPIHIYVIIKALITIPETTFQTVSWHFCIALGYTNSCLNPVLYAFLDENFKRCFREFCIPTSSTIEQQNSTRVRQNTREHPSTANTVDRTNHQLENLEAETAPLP", "type": "binding"}, "[7]": {"molecular_target": "mouse vas deferens (MVD), DOR (Mus musculus, UniProt P32300)", "sequence (P32300 whole entry)": "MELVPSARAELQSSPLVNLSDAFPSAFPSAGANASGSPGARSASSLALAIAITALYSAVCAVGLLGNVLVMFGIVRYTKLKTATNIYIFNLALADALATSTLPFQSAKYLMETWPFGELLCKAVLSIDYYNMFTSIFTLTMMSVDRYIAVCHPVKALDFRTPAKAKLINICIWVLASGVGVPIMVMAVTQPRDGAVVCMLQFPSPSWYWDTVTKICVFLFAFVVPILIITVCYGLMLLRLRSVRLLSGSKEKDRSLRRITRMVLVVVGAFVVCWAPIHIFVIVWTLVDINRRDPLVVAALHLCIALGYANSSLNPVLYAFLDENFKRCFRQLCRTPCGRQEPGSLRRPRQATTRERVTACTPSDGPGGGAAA", "test": "DOR-representative MVD functional assay", "type": "cell-based"}, "κ opioid receptor (KOR)": {"molecular_target": "κ opioid receptor (KOR) (Cavia porcellus, UniProt P41144)", "sequence (P41144 whole entry)": "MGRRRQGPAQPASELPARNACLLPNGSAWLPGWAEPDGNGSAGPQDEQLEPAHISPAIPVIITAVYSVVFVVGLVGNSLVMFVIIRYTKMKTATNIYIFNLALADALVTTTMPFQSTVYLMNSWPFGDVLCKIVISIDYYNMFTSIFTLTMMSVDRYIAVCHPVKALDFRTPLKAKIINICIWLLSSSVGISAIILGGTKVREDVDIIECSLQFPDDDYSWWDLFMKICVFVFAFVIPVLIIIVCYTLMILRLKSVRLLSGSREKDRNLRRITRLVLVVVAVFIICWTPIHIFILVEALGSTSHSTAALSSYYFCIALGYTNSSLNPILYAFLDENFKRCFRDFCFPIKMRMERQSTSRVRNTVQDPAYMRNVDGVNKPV", "test": "GPI functional assay, κ antagonist Ke", "type": "cell-based, guinea pig"}, "δ receptors (DOR)": {"molecular_target": "δ receptors (DOR) (Rattus norvegicus, UniProt P33533)", "sequence (P33533 whole entry)": "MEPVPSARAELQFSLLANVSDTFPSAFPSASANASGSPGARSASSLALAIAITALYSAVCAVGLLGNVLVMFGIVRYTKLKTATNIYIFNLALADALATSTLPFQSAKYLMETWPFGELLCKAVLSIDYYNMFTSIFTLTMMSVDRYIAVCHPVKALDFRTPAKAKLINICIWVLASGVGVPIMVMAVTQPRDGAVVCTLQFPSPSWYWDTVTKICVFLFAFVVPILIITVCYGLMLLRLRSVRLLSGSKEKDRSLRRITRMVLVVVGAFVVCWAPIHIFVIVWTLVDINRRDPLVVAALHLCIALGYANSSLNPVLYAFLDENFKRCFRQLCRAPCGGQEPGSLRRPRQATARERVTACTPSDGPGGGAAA", "test": "δ opioid receptor binding, [3H]DSLET displacement from rat brain membranes", "conditions": "compared with cyclodal"}},
  "note": "Where “and” joins values, the source holds several entries; their conditions need not be identical. Equal entries are not always repeated. Where two headings read alike, the source gives them in different places.",
  "data": [
    {"smiles": "Cc1cc(O)cc(C)c1C[C@@H]1NC(=O)[C@H](CCCCN)NC(=O)[C@H](Cc2ccccc2)NC(=O)[C@@H](CCCNC(=N)N)NC1=O", "note": "[compound 1, c[-D-Arg-Phe-Lys-Dmt-]]", "values": [
      {"measurement": "effect on morphine analgesia, heat withdrawal threshold (hot plate)", "setting": "Sprague-Dawley rats [1]; 1 mg/kg iv", "result": "not at the 1 mg/kg dose"},
      {"measurement": "effect on morphine analgesia, heat withdrawal threshold (hot plate)", "setting": "Sprague-Dawley rats [1]; 5 mg/kg iv", "result": "morphine analgesia at the 30 min time point was reduced"},
      {"measurement": "effect on tail withdrawal latency (TWL) after morphine", "setting": "Sprague-Dawley rats [2]", "result": "not at a dose of 1 mg/kg"},
      {"measurement": "plasma AUC", "setting": "[3]; male CD1 mice, 2 mg/kg iv", "result": 0.0303, "unit": "µg·min/mL"},
      {"measurement": "time of maximum brain concentration", "setting": "[3]; mice, 2 mg/kg iv, after administration", "result": 30, "unit": "min"},
      {"measurement": "stability in rat plasma", "setting": "Plasma stability assay", "result": "stable for up to 48 h"},
      {"measurement": "BSA absorption", "setting": "[4]", "result": "No decrease in peptide peak intensity was observed"},
      {"measurement": "GPI Ke (MOR antagonist)", "setting": "μ opioid receptor (MOR) [5]", "result": "3.12 ± 0.20 nM and 3.06 ± 0.62 nM"},
      {"measurement": "GPI Ke^μ", "setting": "μ opioid receptor (MOR) [5]", "result": "3.26 ± 0.84", "unit": "nM"},
      {"measurement": "higher MOR binding affinity", "setting": "μ opioid receptor (MOR) [6]", "result": 20, "unit": "fold"},
      {"measurement": "activity in the MVD assay", "setting": "[7]", "result": "low efficacy partial agonist activity"},
      {"measurement": "activity in the MVD assay", "setting": "[7]; listed as cyclodal", "result": "weak DOR partial agonist"},
      {"measurement": "Kb", "setting": "κ opioid receptor (KOR); GPI Ke (KOR antagonist), against dynorphin A(1-13)", "result": "206 ± 24", "unit": "nM"},
      {"measurement": "Kb", "setting": "κ opioid receptor (KOR); GPI Ke^κ, determined against U50,488", "result": "40.3 ± 2.6", "unit": "nM"}
    ]},
    {"smiles": "CCCC[C@@H]1NC(=O)[C@H](Cc2ccccc2)NC(=O)[C@@H](CCCNC(=N)N)NC(=O)[C@H](Cc2c(C)cc(O)cc2C)NC1=O", "note": "[compound 4, c[-D-Arg-Phe-Nle-Dmt-]]", "values": [
      {"measurement": "activity in the MVD assay", "setting": "[7]", "result": "low efficacy partial agonist activity"}
    ]},
    {"smiles": "Cc1cc(O)cc(C)c1C[C@@H]1NC(=O)[C@H](CCCN)NC(=O)[C@H](Cc2ccccc2)NC(=O)[C@@H](CCCNC(=N)N)NC1=O", "note": "[compound 6, c[-D-Arg-Phe-Orn-Dmt-]]", "values": [
      {"measurement": "GPI Ke^μ", "setting": "μ opioid receptor (MOR) [5]", "result": "16.8 ± 2.6", "unit": "nM"},
      {"measurement": "activity in the MVD assay", "setting": "[7]", "result": "low efficacy partial agonist activity"}
    ]},
    {"smiles": "Cc1cc(O)cc(C)c1C[C@@H]1NC(=O)C[C@H](CCCCN)NC(=O)[C@H](Cc2ccccc2)NC(=O)[C@@H](CCCNC(=N)N)NC1=O", "note": "[compound 7, c[-D-Arg-Phe-β-hLys-Dmt-]]", "values": [
      {"measurement": "lower DOR binding affinity", "setting": "δ receptors (DOR)", "result": 11, "unit": "fold"},
      {"measurement": "GPI Ke^μ", "setting": "μ opioid receptor (MOR) [5]", "result": "10.5 ± 1.1", "unit": "nM"},
      {"measurement": "Ki ratio μ/δ/κ", "setting": "μ opioid receptor (MOR) [6]", "result": "1/135/6"},
      {"measurement": "reduced/lower MOR binding affinity", "setting": "μ opioid receptor (MOR) [6]", "result": 2, "unit": "fold"},
      {"measurement": "MVD IC50", "setting": "[7]", "result": "inactive"},
      {"measurement": "Kb", "setting": "κ opioid receptor (KOR)", "result": "18.2 ± 1.7", "unit": "nM"},
      {"measurement": "more potent KOR antagonist", "setting": "κ opioid receptor (KOR)", "result": 2, "unit": "fold"}
    ]},
    {"smiles": "Cc1cc(O)cc(C)c1C[C@H](N)C(=O)N[C@H](CCCNC(=N)N)C(=O)N[C@@H](Cc1ccccc1)C(=O)N[C@@H](CCCCN)C(N)=O", "note": "[compound 9, H-Dmt-D-Arg-Phe-Lys-NH2]", "values": [
      {"measurement": "brain AUC", "setting": "[3]; male CD1 mice, 2 mg/kg iv", "result": 0.352, "unit": "µg·min/g"},
      {"measurement": "AUC", "setting": "[3]; male, CD1, mouse, in vivo, iv, 2 mg/kg", "result": 83, "unit": "ng·h/mL"},
      {"measurement": "BSA absorption", "setting": "[4]", "result": "No decrease in peptide peak intensity was observed"}
    ]},
    {"smiles": "C[C@@H](O)[C@H](NC(=O)[C@H]1NC(=O)[C@H]([C@@H](C)O)NC(=O)[C@H](CCCN)NC(=O)[C@@H](Cc2c[nH]c3ccccc23)NC(=O)[C@H](Cc2ccc(O)cc2)NC(=O)[C@@H](NC(=O)[C@H](N)Cc2ccccc2)CSSC1(C)C)C(N)=O", "note": "[compound 10, H-D-Phe-c[Cys-Tyr-D-Trp-Orn-Thr-Pen]-Thr-NH2, reference compound]", "values": [
      {"measurement": "GPI Ke^μ", "setting": "μ opioid receptor (MOR) [5]", "result": "40.9 ± 2.7", "unit": "nM"},
      {"measurement": "activity in the MVD assay", "setting": "[7]", "result": "low efficacy partial agonist activity"},
      {"measurement": "Kb", "setting": "κ opioid receptor (KOR)", "result": "6940 ± 580", "unit": "nM"}
    ]},
    {"smiles": "CN1CC[C@]23c4c5ccc(O)c4O[C@H]2[C@@H](O)C=C[C@H]3[C@H]1C5", "note": "[morphine, reference compound]", "values": [
      {"measurement": "analgesia, heat withdrawal threshold (hot plate)", "setting": "Sprague-Dawley rats [1]; 4 mg/kg sc, compared to vehicle", "result": "produced analgesia compared to vehicle at the 30 and 60 min time points"}
    ]}
  ]
}
